# Measurements: patent publication USRE35801E, “Prophylactic and therapeutic composition for circulatory disorders and method of treatment” (priority 1985, dated 1998)
# “Also recorded” adds a separate entry of the source. Where a name gives a salt, the structure may show the parent alone.
# Assays:
# [1] = tested on: drowsy pattern of electroencephalogram induced by phenobarbital or pentobarbital sodium salt; test: Antagonistic action against drowsy pattern of electroencephalogram induced by phenobarbital or pentobarbital sodium salt; type: in vivo, Wistar-strain male rat; conditions: for minimal effective dose: Rattus norvegicus, intravenous, sodium salt, drowsy EEG after PHB 30 mg/kg or PBT 5 mg/kg, read-out: Antagonistic action at dose or higher
# Protocol: (2) Antagonistic action against drowsy pattern of so electroencephalogram induced by phenobarbital or pentobarbital sodium salt
# A Wistar-strain male rat weighing about 400 g was intramasculary administered with 0.6 mg of d-tubocurarine to be immobilized and, while maintaining the rectal temperature at 37° to 38° C. under artificial respiration, the electroencephalogram of the left cerebral frontal cortex was measured and recorded. Also, within the left femoral artery and vein, cannulas for measurement of artery pressure and for administration of medicine were placed, respectively.
# As the active ingredient of the present invention, sodium salt of the compound represented by Formula (I) was used and the respective doses of said active ingredient and 30 mg/kg of phenobarbital sodium salt (produced by Iwaki Seiyaku K.K.) (hereinafter called "PHB") or 5 mg/kg of pentobarbital sodium salt (hereinafter called PBT) were each dissolved in physiological saline and administered intravenously in a liquid amount of 1 ml/kg.
# The action of the active ingredient of the present invention affecting the cortex electroencephalogram after PHB or PBT administration was investigated as follows; Namely, at the time of 5 minutes or later after PHB or PBT administration when increase of the slow-wave component can be clearly recognized on electroencephalogram, 1, 3, 10, 30 and 100 mg/kg of the active ingredient were administered. To the control group 1 ml/kg of physiological saline was intravenously administered.
# Recording and analysis of electroencephalogram were continuously drawn together with artery pressure, heart rate and rectal temperature on the recorder through a multi-purpose monitoring recording device (model RM-85, produced by Nippon Koden K.K.). At the same time, electroencephalogram was recorded in data recorder (model A-65, produced by Sony K.K.), and compressed spectral array analysis was conducted by means of a computer for medical data processing (ATAC-450, produced by Nippon Koden K.K.).
# [2] = tested on: lipid peroxidation (brain homogenate); test: Inhibitory action of lipid peroxidation in brain homogenate (TBA value); type: biochemical; conditions: inhibition of lipid peroxidation, rat brain homogenate, 37° C., 30 minutes
# Protocol: (1) Inhibitory action of lipid peroxidation (a) Preparation of brain homogenate By use of Wister-strain male rat, brain homogenate was prepared following the procedure as described below. […] Next, a brain perfusion was conducted through the tube with ice-cooled 50 mM phosphate-buffered physiological saline (pH 7.4) hereinafter referred to as "PBS"), and the whole brain was extirpated. After removal of cerebellum, the wet weight of cerebrum was measured and, with addition of 9-fold amount of PBS, it was broken by a Teflon homogenizer in ice-water to be homogenized. After the brain homogenate was subjected to centrifugation at 4° C. at 2200 rpm for 10 minutes, 0.3 ml of the supernatant was apportioned into a light-shielding test tube equipped with a ground stopper, to provide a brain homogenate for evaluation of medicine. (b) Evaluation of test medicine To the brain homogenate produced in (a), 0.6 ml of PBS and 10 μl of ethanolic solution of a test medicine were added (to a final concentration of 500 μM or a concentration at a common ratio of 3 between 0.3 and 100 μm), and the mixture was heated in a warm bath at 37° C. for 30 minutes. […] Also, the same operation was performed by addition of 10 μl of ethanol (blank) in place of 10 μl ethanolic solution of the test medicine for measurement of blank. […] After shaking for about 30 seconds, the mixture was subjected to centrifugation at 3000 rpm for 10 minutes, and the supernatant was provided as a sample for measurement of peroxidized lipid.
# [3] = tested on: cerebral ischemia recirculation model; test: Protective action in cerebral ischemia recirculation model; type: in vivo, Wistar-strain male rat; set-up: key to Presence of electroencephalogram restoration / Judgement of action: The case when restoration of electroencephalogram is judged as +; case when not recognized as -; conditions: 10 mg/kg into duodenum; 10 min cerebral ischemia (Table 3)
# Protocol: (3) Protective action in cerebral ischemia recirculation model
# A Wistar-strain male rat weighing about 400 g was administered intramascularly with 0.6 mg of di-tubocurarine to be immobilized and, after a trachea cannulation, the head portion was fixed under artificial respiration on a stereotaxic device. The head skin was cut open, cranial bone was bored, and then bipolar electrode for lead-out of electroencephalogram were placed on the surface of the subdural left frontal cerebral cortex. After the electrode was fixed with the cranial bone by use of dental cement, the animal was held on its back. Next, a cannula for measurement of systemic pressure was placed within the left femoral artery, and a cannula for additional administration of d-tubocurarine within the left femoral vein, respectively. The heart rate was measured and recorded by driving a heart rate meter with the artery wave.
# After blood pressure, heart rate and various parameters of electroencephalogram were stabilized, 10 mg/kg of the active ingredient of the present invention prepared in a suspension so as to give 1 ml/kg in 1% tragacanth gum solution was administered directly into duodenum […]. To the control group, only the 1% tragacanth gum solution of the same volume was administered similarly.
# Ten to twenty minutes after administration of the medicine, while monitoring the electroencephalogram, blood pressure and heart rate on a multi-purpose monitoring recording device (RM-85 model, produced by Nippon Koden K.K.), the following operations were performed according to the methods shown below for cerebral ischemia loading.
# First, ribs were set free at the left costicartilage end to open the chest. Next, cerebral blood flow was blocked for ten minutes by obstructing the left common carotid artery and the left subclavian artery exposed at the aorta originating portion at the same time, and then the brachiocephalic trunk by use of artery clips 30 minutes after administration of the medicine.
# Recirculation of cerebral blood flow was effected by releasing at the same time the two artery clips mounted on the respective sites as mentioned above.
# The protective action of the medicine for the disorder after recirculation of cerebral ischemia was examined by the presence of restoration of electroencephalogram, and survival time of animal after the recirculation.
# During the experiment, the rectal temperature of the animal was maintained at 37° to 38° C. by use of a warming mat. Also, the rectal temperature was continuously drawn on the recorder together with electroencephalogram, femoral artery pressure and heart rate.
# [4] = cited from earlier work
# [5] = tested on: lipid peroxidation by active oxygen; conditions: cited from earlier work
# [6] = tested on: electroencephalogram under normal state; conditions: deemed to be a side action in clinic; cited from earlier work
# central nervous system = conditions: in vivo; cited from earlier work
Compound,IC50 [2],Presence of electroencephalogram restoration [3],other results
CC1=NN(c2ccc(C)cc2)C(=O)C1 [Compound 4],6.3 µM,+,minimal effective dose [1]: ≥ 10 mg/kg
CCOc1ccc(N2N=C(C)CC2=O)cc1 [Compound 13],10.3 µM,+,
COC1=C(OC)C(=O)C(CCCCCCCCCCO)=C(C)C1=O [idebenone],,,solubilizing in water [4]: difficulty in solubilizing in water; inhibition of lipid peroxidation by active oxygen [5]: can inhibit lipid peroxidation by active oxygen
"NC(=O)[C@@H]1CCCN1C(=O)[C@H](Cc1cnc[nH]1)NC(=O)[C@@H]1CCC(=O)N1 [TRH, L-pyrroglutamyl-L-histidyl-L-prolineamide]",,,action against electroencephalogram under normal state [6]: exhibites an action
"CC1=NN(c2ccccc2)C(=O)C1CC(C)C (stereo not drawn) [Compound 31, 4-Isobutyl-3-methyl-1-phenyl-2-pyrazolin-5-one]",5.7 µM,+,minimal effective dose [1]: ≥ 10 mg/kg
"CCC1(c2ccccc2)C(=O)NC(=O)NC1=O [PHB, phenobarbital sodium salt, reference compound]",,,persistence of sleep-like electroencephalogram after PHB ([1]; PHB 30 mg/kg intravenous): at least 3 hours
COc1ccc(N2N=C(C)CC2=O)cc1 [Compound 11],20.7 µM,+,minimal effective dose [1]: ≥ 10 mg/kg
vitamin E,,,inhibition of lipid peroxidation by active oxygen [5]: can inhibit lipid peroxidation by active oxygen; also recorded: only unsatisfactory action
"CC1=NN(c2ccccc2)C(=O)C1C (stereo not drawn) [Compound 30, 3,4-Dimethyl-1-phenyl-2-pyrazolin-5-one]",20.6 µM,+,
"O=C1C2CCCCC2=NN1c1ccccc1 (stereo not drawn) [Compound 35, 3,3a,4,5,6,7-Hexahydro-2-phenyl-2H-indazol-3-one]",16.4 µM,+,
"CCCC1=NN(c2ccccc2)C(=O)C1 [Compound 25, 1-Phenyl-3-propyl-2-pyrazolin-5-one]",5.9 µM,+,minimal effective dose [1]: ≥ 10 mg/kg
CC1=NN(C2CCCCC2)C(=O)C1 [Compound 40],24.8 µM,+,
CC1=NN(c2ccc(Cl)cc2)C(=O)C1 [Compound 16],4 µM,+,
CCN(CC)Cc1nccn1-c1ccc([N+](=O)[O-])cc1C(=O)c1ccccc1Cl [nizofenone],,,central nervous system depressant activity (central nervous system): potent central nervous system depressant activity; inhibition of lipid peroxidation by active oxygen [5]: can inhibit lipid peroxidation by active oxygen
"O=C1CC=NN1c1ccccc1 [Compound 51, 1-Phenyl-2-pyrazolin-5-one]",20.1 µM,,
